This note sets out measurements from patent US11208412B2 (DAEGU-GYEONGBUK MEDICAL INNOVATION FOUNDATION, priority 2017, dated 2021).

Assay in all cases: Kinase selectivity, DiscoverX scanMAX Kinase assay panel (% control)
Format in all cases: binding

Assay [1] addresses T1, kinases of the scanMAX Kinase assay panel (Homo sapiens, UniProt Q9Y2K2).
T1 construct: purchased DiscoverX Co. (contract measurement) scanMAX Kinase assay panel
The conditions noted are these: QSK; 1 uM. In short, it runs like this: (§1)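 Compounds were tested at 1 uM (in DMSO) against each panel kinase. % control was calculated as (compound − positive control)/(negative control − positive control)×100, where the positive control gives 0% and DMSO gives 100%. Activity toward a kinase was called at % control <35%.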

Assay [2] deals with T2, kinases of the scanMAX Kinase assay panel (Homo sapiens, UniProt Q8NFD2).
T2 construct: purchased DiscoverX Co. (contract measurement) scanMAX Kinase assay panel
T2 sequence (Q8NFD2 1-765): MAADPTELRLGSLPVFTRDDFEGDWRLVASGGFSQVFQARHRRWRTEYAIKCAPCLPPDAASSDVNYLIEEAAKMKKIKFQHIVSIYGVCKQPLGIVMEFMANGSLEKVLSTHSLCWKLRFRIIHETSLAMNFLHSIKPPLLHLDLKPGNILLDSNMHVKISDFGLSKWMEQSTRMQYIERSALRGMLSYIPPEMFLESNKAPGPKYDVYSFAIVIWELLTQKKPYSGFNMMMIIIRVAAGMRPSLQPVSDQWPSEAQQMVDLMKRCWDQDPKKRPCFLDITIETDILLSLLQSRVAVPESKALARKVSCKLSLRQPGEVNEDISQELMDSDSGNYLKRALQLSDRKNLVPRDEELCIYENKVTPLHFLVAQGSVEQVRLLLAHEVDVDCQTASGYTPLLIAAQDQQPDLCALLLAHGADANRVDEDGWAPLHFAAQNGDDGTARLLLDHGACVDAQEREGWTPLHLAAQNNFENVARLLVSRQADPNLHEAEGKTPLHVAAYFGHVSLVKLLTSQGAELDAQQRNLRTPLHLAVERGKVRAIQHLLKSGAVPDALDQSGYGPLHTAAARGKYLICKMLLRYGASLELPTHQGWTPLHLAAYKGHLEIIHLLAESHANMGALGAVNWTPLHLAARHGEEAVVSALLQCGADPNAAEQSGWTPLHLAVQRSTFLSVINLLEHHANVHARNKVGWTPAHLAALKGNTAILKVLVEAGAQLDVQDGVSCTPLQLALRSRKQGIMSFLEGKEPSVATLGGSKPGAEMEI
Conditions: ANKK1; 1 uM. Summed up:
as §1

For assay [3], the target named is T3, kinases of the scanMAX Kinase assay panel (Homo sapiens, UniProt P29376).
T3 construct: purchased DiscoverX Co. (contract measurement) scanMAX Kinase assay panel
T3 sequence (P29376 17-864): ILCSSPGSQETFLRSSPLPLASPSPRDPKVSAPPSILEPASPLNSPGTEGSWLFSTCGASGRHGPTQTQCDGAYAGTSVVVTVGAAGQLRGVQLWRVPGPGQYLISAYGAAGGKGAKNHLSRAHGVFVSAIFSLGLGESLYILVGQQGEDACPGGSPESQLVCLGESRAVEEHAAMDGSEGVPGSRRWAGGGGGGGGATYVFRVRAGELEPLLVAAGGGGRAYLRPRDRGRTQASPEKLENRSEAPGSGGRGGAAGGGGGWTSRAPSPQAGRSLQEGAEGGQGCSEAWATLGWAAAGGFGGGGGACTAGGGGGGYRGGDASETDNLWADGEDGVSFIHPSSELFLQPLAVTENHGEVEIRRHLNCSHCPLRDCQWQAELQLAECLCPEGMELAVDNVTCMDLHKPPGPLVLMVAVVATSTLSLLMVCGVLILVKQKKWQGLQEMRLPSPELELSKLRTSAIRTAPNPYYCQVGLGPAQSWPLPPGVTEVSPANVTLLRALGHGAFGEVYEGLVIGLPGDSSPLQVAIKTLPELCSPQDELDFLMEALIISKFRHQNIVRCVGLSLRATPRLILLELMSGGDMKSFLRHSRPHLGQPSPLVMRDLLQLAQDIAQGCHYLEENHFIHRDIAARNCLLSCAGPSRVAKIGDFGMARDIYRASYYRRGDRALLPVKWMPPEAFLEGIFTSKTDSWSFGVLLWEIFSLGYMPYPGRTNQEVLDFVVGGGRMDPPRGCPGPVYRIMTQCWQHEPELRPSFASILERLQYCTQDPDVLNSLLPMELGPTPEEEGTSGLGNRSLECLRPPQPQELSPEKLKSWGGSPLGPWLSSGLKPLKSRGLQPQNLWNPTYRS
Conditions: LTK; 1 uM. In short, it runs like this:
as §1

In assay [4] the target is T4, kinases of the scanMAX Kinase assay panel (Homo sapiens, UniProt Q13163).
T4 construct: purchased DiscoverX Co. (contract measurement) scanMAX Kinase assay panel
T4 sequence (Q13163 1-448): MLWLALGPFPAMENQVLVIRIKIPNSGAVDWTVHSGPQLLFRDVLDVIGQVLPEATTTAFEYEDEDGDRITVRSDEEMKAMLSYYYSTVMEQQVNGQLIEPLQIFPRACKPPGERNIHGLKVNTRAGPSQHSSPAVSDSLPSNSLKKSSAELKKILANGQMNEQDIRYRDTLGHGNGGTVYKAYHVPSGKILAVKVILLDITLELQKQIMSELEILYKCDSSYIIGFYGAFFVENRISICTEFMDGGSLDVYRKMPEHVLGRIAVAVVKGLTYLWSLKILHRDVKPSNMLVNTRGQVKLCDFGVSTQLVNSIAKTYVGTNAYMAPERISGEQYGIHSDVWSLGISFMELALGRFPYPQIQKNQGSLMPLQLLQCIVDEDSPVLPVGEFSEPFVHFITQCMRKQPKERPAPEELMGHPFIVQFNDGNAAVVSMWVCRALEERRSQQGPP
The conditions noted are these: MEK5; 1 uM. Summed up:
as §1

Assay [5] has as its target T5, kinases of the scanMAX Kinase assay panel (Homo sapiens, UniProt Q02750).
T5 construct: purchased DiscoverX Co. (contract measurement) scanMAX Kinase assay panel
Conditions: MEK1; 1 uM. In short, it runs like this: as §1

The target in assay [6] is T6, kinases of the scanMAX Kinase assay panel (Homo sapiens, UniProt Q9NYY3).
T6 construct: purchased DiscoverX Co. (contract measurement) scanMAX Kinase assay panel
T6 sequence (Q9NYY3 whole entry): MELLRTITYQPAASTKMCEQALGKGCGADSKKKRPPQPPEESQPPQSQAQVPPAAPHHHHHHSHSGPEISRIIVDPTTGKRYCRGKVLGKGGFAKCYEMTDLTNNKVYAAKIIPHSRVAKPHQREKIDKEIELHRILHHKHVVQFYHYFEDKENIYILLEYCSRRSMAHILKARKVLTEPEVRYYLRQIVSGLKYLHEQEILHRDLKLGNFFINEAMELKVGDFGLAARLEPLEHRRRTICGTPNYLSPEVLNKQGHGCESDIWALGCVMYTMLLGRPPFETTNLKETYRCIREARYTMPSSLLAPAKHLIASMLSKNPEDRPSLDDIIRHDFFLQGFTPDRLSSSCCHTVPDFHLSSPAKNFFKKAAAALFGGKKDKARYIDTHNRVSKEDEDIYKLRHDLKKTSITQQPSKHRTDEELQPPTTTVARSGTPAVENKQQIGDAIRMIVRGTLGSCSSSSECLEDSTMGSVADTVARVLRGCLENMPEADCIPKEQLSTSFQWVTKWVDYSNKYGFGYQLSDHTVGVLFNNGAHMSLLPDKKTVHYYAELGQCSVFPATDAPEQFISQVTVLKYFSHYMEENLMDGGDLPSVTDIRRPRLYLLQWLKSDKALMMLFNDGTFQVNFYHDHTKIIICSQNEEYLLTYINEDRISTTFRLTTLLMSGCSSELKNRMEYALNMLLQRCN
The conditions noted are these: PLK2; 1 uM. In short, it runs like this: as §1

The target in assay [7] is T7, kinases of the scanMAX Kinase assay panel (Homo sapiens, UniProt P10721, L576P).
T7 construct: purchased DiscoverX Co. (contract measurement) scanMAX Kinase assay panel
The conditions noted are these: KIT(L576P); 1 uM. Summed up: as §1

For assay [8], the target named is T8, kinases of the scanMAX Kinase assay panel (Homo sapiens, UniProt P00533, L861Q).
T8 construct: purchased DiscoverX Co. (contract measurement) scanMAX Kinase assay panel
T8 sequence (P00533 25-1210 L861Q): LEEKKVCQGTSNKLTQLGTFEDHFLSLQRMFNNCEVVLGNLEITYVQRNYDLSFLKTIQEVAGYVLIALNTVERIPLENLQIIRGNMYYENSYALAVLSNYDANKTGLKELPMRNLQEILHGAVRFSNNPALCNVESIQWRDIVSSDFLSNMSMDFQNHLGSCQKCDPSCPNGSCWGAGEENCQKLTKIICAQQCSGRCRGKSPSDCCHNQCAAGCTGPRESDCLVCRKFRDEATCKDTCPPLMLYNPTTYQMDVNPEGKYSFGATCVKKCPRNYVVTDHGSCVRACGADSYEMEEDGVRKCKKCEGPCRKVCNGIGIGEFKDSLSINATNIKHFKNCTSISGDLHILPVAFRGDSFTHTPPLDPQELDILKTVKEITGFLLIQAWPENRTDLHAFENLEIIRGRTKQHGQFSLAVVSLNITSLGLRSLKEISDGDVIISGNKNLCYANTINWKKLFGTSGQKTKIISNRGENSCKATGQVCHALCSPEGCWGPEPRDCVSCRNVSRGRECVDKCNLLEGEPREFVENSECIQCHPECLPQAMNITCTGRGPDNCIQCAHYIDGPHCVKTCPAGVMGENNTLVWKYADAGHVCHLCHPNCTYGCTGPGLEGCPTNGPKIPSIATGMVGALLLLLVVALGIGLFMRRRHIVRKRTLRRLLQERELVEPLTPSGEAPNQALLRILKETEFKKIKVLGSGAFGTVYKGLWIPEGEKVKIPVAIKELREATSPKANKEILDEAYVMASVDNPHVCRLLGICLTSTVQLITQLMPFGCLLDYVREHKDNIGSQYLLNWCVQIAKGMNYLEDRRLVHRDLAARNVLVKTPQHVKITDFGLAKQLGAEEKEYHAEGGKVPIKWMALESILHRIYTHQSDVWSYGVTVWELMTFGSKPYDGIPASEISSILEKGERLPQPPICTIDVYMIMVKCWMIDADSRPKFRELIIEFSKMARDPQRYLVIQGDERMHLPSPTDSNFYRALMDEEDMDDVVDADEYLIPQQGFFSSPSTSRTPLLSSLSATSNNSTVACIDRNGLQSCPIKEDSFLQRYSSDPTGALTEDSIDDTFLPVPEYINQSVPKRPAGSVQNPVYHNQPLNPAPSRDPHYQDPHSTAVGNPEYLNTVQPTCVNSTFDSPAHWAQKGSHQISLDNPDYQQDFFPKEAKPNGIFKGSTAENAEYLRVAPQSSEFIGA
The conditions noted are these: EGFR(L861Q); 1 uM. Summed up:
as §1

Assay [9] addresses T9, kinases of the scanMAX Kinase assay panel (Homo sapiens, UniProt Q96GD4).
T9 construct: purchased DiscoverX Co. (contract measurement) scanMAX Kinase assay panel
Conditions: AURKB; 1 uM. In short, it runs like this: as §1

SMILES strings stand for the structures.

T1 sequence (Q9Y2K2 whole entry): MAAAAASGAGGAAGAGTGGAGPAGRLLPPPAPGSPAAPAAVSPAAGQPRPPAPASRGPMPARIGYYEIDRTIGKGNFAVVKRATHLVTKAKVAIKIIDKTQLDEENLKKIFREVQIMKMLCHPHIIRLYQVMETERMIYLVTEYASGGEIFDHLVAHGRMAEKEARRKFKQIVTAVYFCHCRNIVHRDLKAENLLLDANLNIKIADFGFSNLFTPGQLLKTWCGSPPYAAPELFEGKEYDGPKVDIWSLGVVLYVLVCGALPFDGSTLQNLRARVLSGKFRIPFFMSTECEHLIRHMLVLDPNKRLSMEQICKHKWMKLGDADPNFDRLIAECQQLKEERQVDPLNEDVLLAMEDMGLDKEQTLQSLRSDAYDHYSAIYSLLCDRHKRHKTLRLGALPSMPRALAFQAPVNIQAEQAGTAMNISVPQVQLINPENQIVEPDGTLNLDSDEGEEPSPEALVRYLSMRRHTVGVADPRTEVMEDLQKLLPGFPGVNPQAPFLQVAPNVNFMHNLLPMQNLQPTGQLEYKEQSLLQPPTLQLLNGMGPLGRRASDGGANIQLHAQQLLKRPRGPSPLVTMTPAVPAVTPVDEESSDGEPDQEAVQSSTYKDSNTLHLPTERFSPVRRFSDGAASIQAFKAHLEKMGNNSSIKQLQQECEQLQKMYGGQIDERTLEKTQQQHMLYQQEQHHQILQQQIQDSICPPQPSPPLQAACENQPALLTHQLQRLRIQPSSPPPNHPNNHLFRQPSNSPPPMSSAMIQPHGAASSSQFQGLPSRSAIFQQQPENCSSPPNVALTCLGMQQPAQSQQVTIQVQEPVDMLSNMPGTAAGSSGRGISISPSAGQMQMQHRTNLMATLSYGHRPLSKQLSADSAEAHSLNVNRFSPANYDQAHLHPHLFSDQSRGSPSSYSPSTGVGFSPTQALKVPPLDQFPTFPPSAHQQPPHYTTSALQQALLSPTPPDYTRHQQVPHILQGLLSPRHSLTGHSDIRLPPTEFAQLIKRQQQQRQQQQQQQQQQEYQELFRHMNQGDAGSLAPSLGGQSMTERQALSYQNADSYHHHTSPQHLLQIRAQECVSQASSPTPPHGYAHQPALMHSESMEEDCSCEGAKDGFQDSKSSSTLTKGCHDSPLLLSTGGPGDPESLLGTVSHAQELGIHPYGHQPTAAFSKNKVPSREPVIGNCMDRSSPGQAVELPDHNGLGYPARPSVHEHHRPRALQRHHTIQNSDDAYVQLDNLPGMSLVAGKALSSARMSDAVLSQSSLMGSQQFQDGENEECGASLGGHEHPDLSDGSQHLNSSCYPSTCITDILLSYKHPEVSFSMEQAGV
T9 sequence (Q96GD4 whole entry): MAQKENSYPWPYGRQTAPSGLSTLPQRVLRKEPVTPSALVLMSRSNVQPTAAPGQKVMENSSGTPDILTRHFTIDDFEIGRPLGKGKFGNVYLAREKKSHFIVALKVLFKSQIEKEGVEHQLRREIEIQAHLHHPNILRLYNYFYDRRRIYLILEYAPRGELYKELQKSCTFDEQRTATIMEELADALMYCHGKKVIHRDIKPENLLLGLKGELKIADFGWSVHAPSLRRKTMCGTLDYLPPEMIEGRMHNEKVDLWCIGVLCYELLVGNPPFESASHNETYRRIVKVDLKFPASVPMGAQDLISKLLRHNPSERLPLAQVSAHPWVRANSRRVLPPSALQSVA
T5 sequence (Q02750 whole entry): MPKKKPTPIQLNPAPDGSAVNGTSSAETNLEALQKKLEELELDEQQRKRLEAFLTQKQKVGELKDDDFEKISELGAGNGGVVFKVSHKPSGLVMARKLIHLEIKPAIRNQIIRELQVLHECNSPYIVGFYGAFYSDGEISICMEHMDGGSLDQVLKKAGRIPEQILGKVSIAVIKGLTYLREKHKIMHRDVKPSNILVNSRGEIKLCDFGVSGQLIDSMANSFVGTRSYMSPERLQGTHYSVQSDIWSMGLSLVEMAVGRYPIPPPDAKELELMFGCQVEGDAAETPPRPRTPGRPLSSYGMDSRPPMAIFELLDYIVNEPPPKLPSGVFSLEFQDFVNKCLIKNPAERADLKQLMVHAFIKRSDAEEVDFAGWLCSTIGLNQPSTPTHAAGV

As for `CNc1nc(Nc2ccc(C(=O)N3CCOCC3)cc2OC)nc2[nH]cc(C#N)c12` [Example 1, 2-((2-methoxy-4-(morpholine-4-carbonyl)phenyl)amino)-4-(methylamino)-7H-pyrrolo[2,3-d]pyrimidine-5-carbonitrile], the remaining binding at 1 µM came to 79% in assay [1]; 82% in assay [2]; 6.8% in assay [3]; 47% in [4]; 89% in assay [5]; 81% in assay [6]. Moreover, the remaining binding at 1 µM in assay [7] is 41%; in assay [8], 100%; in assay [9], 73%.
Consider `CC1(Nc2nc(Nc3cnn([C@H]4CCN(C5COC5)C[C@@H]4F)c3Cl)nc3[nH]cc(C#N)c23)CC1` [Example 52, 2-((5-chloro-1-((3S,4S)-3-fluoro-1-(oxetane-3-yl)piperidine-4-yl)-1H-pyrazole-4-yl)amino)((1-methylcyclopropyl)amino)-7H-pyrrolo[2,3-d]pyrimidine-5-carbonitrile], for which the remaining binding at 1 µM in [1] was determined as 87%; in assay [2] it was 15%; in assay [3] it was 3.4%; in [4], 0.05%; in assay [5] it was 0.1%; in [6] it was 93%. For the same compound, the remaining binding at 1 µM was found to be 0% in assay [7], 53% in [8] and 14% in [9].
With `CCNc1nc(Nc2ccc(C(=O)N3CCC(N4CCOCC4)CC3)cc2OC)nc2[nH]cc(C(F)(F)F)c12` [Example 104, (4-((4-(ethylamino)-5-(trifluoromethyl)-7H-pyrrolo[2,3-d]pyrimidine-2-yl)amino)-3-methoxyphenyl)(4-morpholinopiperidine-1-yl)methanone], the remaining binding at 1 µM in assay [1] amounted to 97%; in assay [2], 95%; in assay [3], 3.7%; in [4], 74%; in assay [5] it was 86%; in assay [6], 100%. Moreover, the results for the remaining binding at 1 µM in assay [7], in assay [8] and in assay [9] were 47%, 99% and 90%, respectively.
